In PubChem BioAssay (NCI):
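Tested at 5 concentrations; 48 h exposure; 96-well plates; endpoints linearly interpolated, else capped at highest concentration. Abbreviation: GI50, concentration required for 50% inhibition of growth. TGI: concentration producing complete growth inhibition.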

Legend:
Experiment in all cases: inhibition of tumour cell growth, NCI panel, 48 h
NCI/ADR-RES ovarian = test system: NCI/ADR-RES ovarian
SF-268 CNS = test system: SF-268 CNS
HT29 colon = test system: HT29 colon
HCT-116 colon = test system: HCT-116 colon
BT-549 breast = test system: BT-549 breast
OVCAR-4 ovarian = test system: OVCAR-4 ovarian
OVCAR-5 ovarian = test system: OVCAR-5 ovarian
LOX IMVI melanoma = test system: LOX IMVI melanoma
HS 578T breast = test system: HS 578T breast
EKVX NSCLC = test system: EKVX NSCLC
SK-OV-3 ovarian = test system: SK-OV-3 ovarian
T-47D breast = test system: T-47D breast
UO-31 renal = test system: UO-31 renal
A549 NSCLC = test system: A549 NSCLC
SN12C renal = test system: SN12C renal
MDA-MB-231 breast = test system: MDA-MB-231 breast
U251 CNS = test system: U251 CNS
A498 renal = test system: A498 renal
MDA-MB-435 = test system: MDA-MB-435
RXF 393 renal = test system: RXF 393 renal
ACHN renal = test system: ACHN renal
SW-620 colon = test system: SW-620 colon
786-0 renal = test system: 786-0 renal
SR leukemia = test system: SR leukemia
SF-539 CNS = test system: SF-539 CNS
OVCAR-8 ovarian = test system: OVCAR-8 ovarian
HCT-15 colon = test system: HCT-15 colon
PC-3 prostate = test system: PC-3 prostate
COLO 205 colon = test system: COLO 205 colon
NCI-H522 lung = test system: NCI-H522 lung
SNB-75 CNS = test system: SNB-75 CNS
MALME-3M melanoma = test system: MALME-3M melanoma
SK-MEL-28 melanoma = test system: SK-MEL-28 melanoma
KM12 colon = test system: KM12 colon
HCC-2998 colon = test system: HCC-2998 colon
IGROV1 ovarian = test system: IGROV1 ovarian
HOP-92 NSCLC = test system: HOP-92 NSCLC
UACC-62 melanoma = test system: UACC-62 melanoma
SF-295 CNS = test system: SF-295 CNS
NCI-H460 lung = test system: NCI-H460 lung
NCI-H226 lung = test system: NCI-H226 lung
CCRF-CEM leukemia = test system: CCRF-CEM leukemia
CAKI-1 renal = test system: CAKI-1 renal
HOP-62 NSCLC = test system: HOP-62 NSCLC
MCF7 breast = test system: MCF7 breast
SK-MEL-5 melanoma = test system: SK-MEL-5 melanoma
MOLT-4 leukemia = test system: MOLT-4 leukemia
DU-145 prostate = test system: DU-145 prostate
TK-10 renal = test system: TK-10 renal
M14 melanoma = test system: M14 melanoma
NCI-H23 lung = test system: NCI-H23 lung
HL-60(TB) leukemia = test system: HL-60(TB) leukemia
K-562 leukemia = test system: K-562 leukemia
SNB-19 CNS = test system: SNB-19 CNS
UACC-257 melanoma = test system: UACC-257 melanoma

## C#C[C@]1(O)CC[C@H]2[C@@H]3CC=C4c5sc(Nc6cccc(C)n6)nc5CC[C@]4(C)[C@H]3CC[C@@]21C
NCI/ADR-RES ovarian
  GI50: 1820 nM
  TGI: 7410 nM
SF-268 CNS
  GI50: 2020 nM
  TGI: 7370 nM
HT29 colon
  GI50: 1500 nM
  TGI: 3170 nM
HCT-116 colon
  GI50: 1350 nM
  TGI: 3040 nM
BT-549 breast
  GI50: 1490 nM
  TGI: 3310 nM
OVCAR-4 ovarian
  GI50: 3020 nM
  TGI: 16800 nM
OVCAR-5 ovarian
  GI50: 1700 nM
  TGI: 3780 nM
LOX IMVI melanoma
  GI50: 1390 nM
  TGI: 2790 nM
HS 578T breast
  GI50: 343 nM
  TGI: 2020 nM
EKVX NSCLC
  GI50: 1390 nM
  TGI: 10100 nM
SK-OV-3 ovarian
  GI50: 1370 nM
  TGI: 3250 nM
T-47D breast
  GI50: 1980 nM
  TGI: 6640 nM
UO-31 renal
  GI50: 1140 nM
  TGI: 2560 nM
A549 NSCLC
  GI50: 1890 nM
  TGI: 8310 nM
SN12C renal
  GI50: 1620 nM
  TGI: 3200 nM
MDA-MB-231 breast
  GI50: 1240 nM
  TGI: 3380 nM
U251 CNS
  GI50: 558 nM
  TGI: 1930 nM
A498 renal
  GI50: 1280 nM
  TGI: 2620 nM
MDA-MB-435
  GI50: 2240 nM
  TGI: 6440 nM
RXF 393 renal
  GI50: 230 nM
  TGI: 579 nM
ACHN renal
  GI50: 1200 nM
  TGI: 3550 nM
SW-620 colon
  GI50: 1560 nM
  TGI: 3090 nM
786-0 renal
  GI50: 437 nM
  TGI: 1960 nM
SR leukemia
  GI50: 403 nM
  TGI: 2090 nM
SF-539 CNS
  GI50: 280 nM
  TGI: 1170 nM
OVCAR-8 ovarian
  GI50: 1450 nM
  TGI: 4780 nM
HCT-15 colon
  GI50: 1130 nM
  TGI: 2710 nM
PC-3 prostate
  GI50: 979 nM
  TGI: 5540 nM
COLO 205 colon
  GI50: 1760 nM
  TGI: 3380 nM
NCI-H522 lung
  GI50: 1660 nM
  TGI: 3260 nM
SNB-75 CNS
  GI50: 1090 nM
  TGI: 8320 nM
MALME-3M melanoma
  GI50: 1400 nM
  TGI: 3360 nM
SK-MEL-28 melanoma
  GI50: 543 nM
  TGI: 2280 nM
KM12 colon
  GI50: 1850 nM
  TGI: 5990 nM
HCC-2998 colon
  GI50: 2190 nM
  TGI: 5520 nM
IGROV1 ovarian
  GI50: 2740 nM
  TGI: 11500 nM
HOP-92 NSCLC
  GI50: 1590 nM
  TGI: 4150 nM
UACC-62 melanoma
  GI50: 1490 nM
  TGI: 3300 nM
SF-295 CNS
  GI50: 329 nM
  TGI: 1360 nM
NCI-H460 lung
  GI50: 1460 nM
  TGI: 3040 nM
NCI-H226 lung
  GI50: 2690 nM
  TGI: 12100 nM
CCRF-CEM leukemia
  GI50: 1360 nM
  TGI: 6350 nM
CAKI-1 renal
  GI50: 1530 nM
  TGI: 4340 nM
HOP-62 NSCLC
  GI50: 1330 nM
  TGI: 2930 nM
MCF7 breast
  GI50: 1240 nM
  TGI: 3520 nM
SK-MEL-5 melanoma
  GI50: 1840 nM
  TGI: 3700 nM
MOLT-4 leukemia
  GI50: 552 nM
  TGI: 3050 nM
DU-145 prostate
  GI50: 2800 nM
  TGI: 12000 nM
TK-10 renal
  GI50: 2460 nM
  TGI: 7670 nM
M14 melanoma
  GI50: 1520 nM
  TGI: 3570 nM
NCI-H23 lung
  GI50: 1570 nM
  TGI: 6030 nM
HL-60(TB) leukemia
  GI50: 710 nM
  TGI: 3460 nM
K-562 leukemia
  GI50: 666 nM
  TGI: 3100 nM
SNB-19 CNS
  GI50: 1200 nM
  TGI: 3820 nM
UACC-257 melanoma
  GI50: 1620 nM
  TGI: 3460 nM
